{"source": "patent US6953813B1", "about": "“2-Aminotetralin derivatives for the therapy of glaucoma” (Chiesi Farmaceutici S.p.A., priority 1999, dated 2005)", "assay": "pKa", "type": "physicochemical", "text": "The higher apparent partition coefficient would be more favorable for ophthalmic absorption. However, an acid aqueous solution should be used as a vehicle for eyedrop administration due to the better chemical stability of CHF 1035 in such pH range. The theoretical log Papp of the corresponding not esterified derivative turned out to be −0.9 at pH 7.4."}
{"smiles": "CNC1CCc2c(ccc(OC(=O)C(C)C)c2OC(=O)C(C)C)C1", "note": "(racemic) [CHF 1035, (±)-(R,S)-5,6-diisobutyryloxy-2-methylaminotetralin]", "values": [{"measurement": "pKa", "value": 9.4}]}
